The values below come from patent US6087358A (priority 1997, dated 2000).

SMILES strings stand for the structures. ≈ marks a conversion by molar mass, not a printed value.

The test system of test [1] is Mycobacterium tuberculosis (rMTB). The test can be described thus: In vivo antimycobacterial activity against M. tuberculosis (rMTB) in spleens of mice. On the set-up: species or system Mycobacterium tuberculosis Erdman, in female BALB/c mice. The settings on record: 25 mg/kg daily oral gavage, CM-2, 10 days, control 422,866 (PA-824, 636, 1297) or 362,274 (others).
Test [2] concerns Mycobacterium bovis BCG (recombinant strain). The test can be described thus: microbe, parasite or virus in culture. Type of test: cell-based. The settings on record: Mycobacterium tuberculosis variant bovis BCG, BCG, 144 h; 6 days 37° C.; read-out: MIC, column A, 3(S) compounds.

For the compound `O=[N+]([O-])c1cn2c(n1)OC[C@@H](OCc1ccc(OC(F)(F)F)cc1)C2` [PA-824, 3S 4-(Trifluromethoxy)benzyloxy-6-nitro-2H-3,4-dihydro-[2-1b]imidazopyran], in test [1], the “Average RLUs, M. tuberculosis (rMTB) in spleens” value is 53,540 RLUs. Further, in test [2], the MIC is 0.06 µg/mL (≈ 0.167 µM).
